Measurements from patent US10189839B2, “Tricyclic imidazole compounds as inhibitors of tryptophan hydroxylase” (ACTELION PHARMACEUTICALS LTD, priority 2013, dated 2019).

Target: T1, full length human TPH1 (Homo sapiens, UniProt P17752)
T1 construct: To generate the enzyme, full length human TPH1 is cloned into the plasmid pET20b(+); made in house; host or cells: E. coli
T1 sequence (P17752 1-444): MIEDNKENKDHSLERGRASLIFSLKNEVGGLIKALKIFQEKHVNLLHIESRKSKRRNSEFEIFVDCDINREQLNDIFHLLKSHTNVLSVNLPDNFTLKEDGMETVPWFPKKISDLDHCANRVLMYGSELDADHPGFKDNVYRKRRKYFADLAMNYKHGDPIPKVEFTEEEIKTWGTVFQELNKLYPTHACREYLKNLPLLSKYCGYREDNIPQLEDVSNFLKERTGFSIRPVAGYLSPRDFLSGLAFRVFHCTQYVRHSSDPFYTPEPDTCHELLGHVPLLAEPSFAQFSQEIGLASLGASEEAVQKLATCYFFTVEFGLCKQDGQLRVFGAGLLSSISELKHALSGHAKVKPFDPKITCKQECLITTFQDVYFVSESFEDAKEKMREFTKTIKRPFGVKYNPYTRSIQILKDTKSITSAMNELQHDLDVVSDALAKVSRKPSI
Experiment: Biochemical in vitro assay using fluorescence readout (TPH1 enzyme activity)
Details: Table 1, mean where determined several times
Method in brief: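 E. coli-expressed full-length human TPH1 (40-80 nM), affinity- and size-exclusion-purified, incubated 60 min at 15° C. in 0.1M Tris-HCl pH 7.6 with 1 mM DTT, 0.2 mg/ml catalase, 100 μM 6-methyltetrahydropterine and 40 μM L-tryptophan. 5-Hydroxy-L-tryptophan read by fluorescence (ex 300/em 540 nm) after HClO4 quench; IC50 versus vehicle, mean where repeated.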

SMILES | IC50 [nM]
CCc1nc(C)c(C2c3c(nc4n3CCCC4)CCN2C(=O)COc2ccc(NS(C)(=O)=O)nc2Cl)s1 (stereo not shown) [Example 1.11.1, N-(6-chloro-5-(2-(1-(2-ethyl-4-methylthiazol-5-yl)-3,4,6,7,8,9-hexahydroimidazo[1,2-a:5,4-c′]dipyridin-2(1H)-yl)-2-oxoethoxy)pyridin-2-yl)methanesulfonamide] | 49
Cc1nc(C(C)C)sc1C1c2c(nc3n2CCCC3)CCN1C(=O)COc1ccc(NS(C)(=O)=O)nc1Cl (stereo not shown) [Example 1.12.1, N-(6-chloro-5-(2-(1-(2-isopropyl-4-methylthiazol-5-yl)-3,4,6,7,8,9-hexahydroimidazo[1,2-a:5,4-c′]dipyridin-2(1H)-yl)-2-oxoethoxy)pyridin-2-yl)methanesulfonamide] | 819
CCc1nc(NS(C)(=O)=O)ccc1OCC(=O)N1CCc2nc3n(c2C1c1sccc1F)CCCC3 (stereo not shown) [Example 1.14.1, N-(6-ethyl-5-(2-(1-(3-fluorothiophen-2-yl)-3,4,6,7,8,9-hexahydroimidazo[1,2-a:5,4-c′]dipyridin-2(1H)-yl)-2-oxoethoxy)pyridin-2-yl)methanesulfonamide] | 16
CCc1nc(NS(C)(=O)=O)ccc1OCC(=O)N1CCc2nc3n(c2C1c1cnc(C)s1)CCCC3 (stereo not shown) [Example 1.15.1, N-(6-ethyl-5-(2-(1-(2-methylthiazol-5-yl)-3,4,6,7,8,9-hexahydroimidazo[1,2-a:5,4-c′]dipyridin-2(1H)-yl)-2-oxoethoxy)pyridin-2-yl)methanesulfonamide] | 36
CCc1nc(N2CCCS2(=O)=O)ccc1OCC(=O)N1CCc2nc3n(c2C1c1cnc(C)s1)CCCC3 (stereo not shown) [Example 1.15.2, 2-((6-(1,1-dioxidoisothiazolidin-2-yl)-2-ethylpyridin-3-yl)oxy)-1-(1-(2-methylthiazol-5-yl)-3,4,6,7,8,9-hexahydroimidazo[1,2-a:5,4-c′]dipyridin-2(1H)-yl)ethanone] | 27
CCc1nc(NS(C)(=O)=O)ccc1OCC(=O)N1CCc2nc3n(c2C1c1cnc(-c2ccccc2)s1)CCCC3 (stereo not shown) [Example 1.16.1, N-(6-ethyl-5-(2-oxo-2-(1-(2-phenylthiazol-5-yl)-3,4,6,7,8,9-hexahydroimidazo[1,2-a:5,4-c′]dipyridin-2(1H)-yl)ethoxy)pyridin-2-yl)methanesulfonamide] | 225
Cc1nc(C(F)(F)F)sc1C1c2c(nc3n2CCCC3)CCN1C(=O)COc1ccc(NS(C)(=O)=O)nc1Cl (stereo not shown) [Example 1.18.1, N-(6-chloro-5-(2-(1-(4-methyl-2-(trifluoromethyl)thiazol-5-yl)-3,4,6,7,8,9-hexahydroimidazo[1,2-a:5,4-c′]dipyridin-2(1H)-yl)-2-oxoethoxy)pyridin-2-yl)methanesulfonamide] | 126
Cc1cc(F)cnc1C1c2c(nc3n2CCCC3)CCN1C(=O)COc1ccc(NS(C)(=O)=O)nc1Cl (stereo not shown) [Example 1.19.1, N-(6-chloro-5-(2-(1-(5-fluoro-3-methylpyridin-2-yl)-3,4,6,7,8,9-hexahydroimidazo[1,2-a:5,4-c′]dipyridin-2(1H)-yl)-2-oxoethoxy)pyridin-2-yl)methanesulfonamide] | 113
O=C(NC1CC1)c1ccc(OCC(=O)N2CCc3nc4n(c3C2c2ccc(OC(F)(F)F)cc2F)CCCC4)c(Cl)n1 (stereo not shown) [Example 1.20.1, 6-chloro-N-cyclopropyl-5-(2-(1-(2-fluoro-4-(trifluoromethoxy)phenyl)-3,4,6,7,8,9-hexahydroimidazo[1,2-a:5,4-c′]dipyridin-2(1H)-yl)-2-oxoethoxy)picolinamide] | 26
CS(=O)(=O)Nc1ccc(OCC(=O)N2CCc3nc4n(c3C2c2ccc(OC(F)(F)F)cc2F)CCCC4)c(Cl)n1 (stereo not shown) [Example 1.20.2, N-(6-chloro-5-(2-(1-(2-fluoro-4-(trifluoromethoxy)phenyl)-3,4,6,7,8,9-hexahydroimidazo[1,2-a:5,4-c′]dipyridin-2(1H)-yl)-2-oxoethoxy)pyridin-2-yl)methanesulfonamide] | 37
CS(=O)(=O)Nc1ccc(OCC(=O)N2CCc3nc4n(c3C2c2ccc(C#N)cc2F)CCCC4)c(Cl)n1 (stereo not shown) [Example 1.22.1, N-(6-chloro-5-(2-(1-(4-cyano-2-fluorophenyl)-3,4,6,7,8,9-hexahydroimidazo[1,2-a:5,4-c′]dipyridin-2(1H)-yl)-2-oxoethoxy)pyridin-2-yl)methanesulfonamide] | 48
N#Cc1ccc(C2c3c(nc4n3CCCC4)CCN2C(=O)COc2ccc(C(=O)NC3CC3)nc2Cl)c(F)c1 (stereo not shown) [Example 1.22.2, 6-chloro-5-(2-(1-(4-cyano-2-fluorophenyl)-3,4,6,7,8,9-hexahydroimidazo[1,2-a:5,4-c′]dipyridin-2(1H)-yl)-2-oxoethoxy)-N-cyclopropylpicolinamide] | 28

Second part, the compound after the results:

IC50 [nM] | SMILES
11 | CCc1nc(N2CCCS2(=O)=O)ccc1OCC(=O)N1CCc2nc3n(c2C1c1sc(C)nc1C)CCCC3 (stereo not shown) [Example 1.10.19, 1-(1-(2,4-dimethylthiazol-5-yl)-3,4,6,7,8,9-hexahydroimidazo[1,2-a:5,4-c′]dipyridin-2(1H)-yl)-2-((6-(1,1-dioxidoisothiazolidin-2-yl)-2-ethylpyridin-3-yl)oxy)ethan-1-one]
44 | CCc1nc(NS(C)(=O)=O)ccc1OCC(=O)N1CCc2nc3n(c2C1c1scnc1C)CCCC3 (stereo not shown) [Example 1.13.1, N-(6-ethyl-5-(2-(1-(4-methylthiazol-5-yl)-3,4,6,7,8,9-hexahydroimidazo[1,2-a:5,4-c′]dipyridin-2(1H)-yl)-2-oxoethoxy)pyridin-2-yl)methanesulfonamide207]
15 | CCc1nc(N2CCCS2(=O)=O)ccc1OCC(=O)N1CCc2nc3n(c2C1c1scnc1C)CCCC3 (stereo not shown) [Example 1.13.2, 2-((6-(1,1-dioxidoisothiazoli132din-2-yl)-2-ethylpyridin-3-yl)oxy)-1-(1-(4-methylthiazol-5-yl)-3,4,6,7,8,9-hexahydroimidazo[1,2-a:5,4-c′]dipyridin-2(1H)-yl)ethanone]
12 | CCc1nc(C(=O)NC2CC2)ccc1OCC(=O)N1CCc2nc3n(c2C1c1sccc1F)CCCC3 (stereo not shown) [Example 1.14.2, N-cyclopropyl-6-ethyl-5-(2-(1-(3-fluorothiophen-2-yl)-3,4,6,7,8,9-hexahydroimidazo[1,2-a:5,4-c′]dipyridin-2(1H)-yl)-2-oxoethoxy)picolinamide]
79 | CCc1nc(NS(C)(=O)=O)ccc1OCC(=O)N1CCc2nc3n(c2C1c1nc(-c2ccccc2)no1)CCCC3 (stereo not shown) [Example 1.17.1, N-(6-ethyl-5-(2-oxo-2-(1-(3-phenyl-1,2,4-oxadiazol-5-yl)-3,4,6,7,8,9-hexahydroimidazo[1,2-a:5,4-c′]dipyridin-2(1H)-yl)ethoxy)pyridin-2-yl)methanesulfonamide]
18 | COc1ccc(C2c3c(nc4n3CCCC4)CCN2C(=O)COc2ccc(C(=O)NC3CC3)nc2Cl)c(F)c1 (stereo not shown) [Example 1.21.1, 6-chloro-N-cyclopropyl-5-(2-(1-(2-fluoro-4-methoxyphenyl)-3,4,6,7,8,9-hexahydroimidazo[1,2-a:5,4-c′]dipyridin-2(1H)-yl)-2-oxoethoxy)picolinamide]
78 | COc1ccc(C2c3c(nc4n3CCCC4)CCN2C(=O)COc2ccc(NS(C)(=O)=O)nc2Cl)c(F)c1 (stereo not shown) [Example 1.21.2, N-(6-chloro-5-(2-(1-(2-fluoro-4-methoxyphenyl)-3,4,6,7,8,9-hexahydroimidazo[1,2-a:5,4-c′]dipyridin-2(1H)-yl)-2-oxoethoxy)pyridin-2-yl)methanesulfonamide]
